# Experimental data published in patent US6881719B2, “β-turn peptidomimetic cyclic compounds” (McGill University, priority 2000, dated 2005).
# Values joined by “and” are separate entries in the source; they are usually repeats but may differ in a detail not shown here. Equal values may be shown once.
# Tests used:
# TrkA-ECD = target: T1, TrkA-ECD (Homo sapiens, UniProt P04629); experiment: ELISA competition of mAb 5C3 binding to immobilized TrkA-ECD; conditions: mAb 5C3 2 nM; competitor 40 μM
# T1 construct: pure soluble TrkA extracellular domain (TrkA-ECD) produced in baculovirus; made in house
# T1 sequence (P04629 33-423 limits assumed): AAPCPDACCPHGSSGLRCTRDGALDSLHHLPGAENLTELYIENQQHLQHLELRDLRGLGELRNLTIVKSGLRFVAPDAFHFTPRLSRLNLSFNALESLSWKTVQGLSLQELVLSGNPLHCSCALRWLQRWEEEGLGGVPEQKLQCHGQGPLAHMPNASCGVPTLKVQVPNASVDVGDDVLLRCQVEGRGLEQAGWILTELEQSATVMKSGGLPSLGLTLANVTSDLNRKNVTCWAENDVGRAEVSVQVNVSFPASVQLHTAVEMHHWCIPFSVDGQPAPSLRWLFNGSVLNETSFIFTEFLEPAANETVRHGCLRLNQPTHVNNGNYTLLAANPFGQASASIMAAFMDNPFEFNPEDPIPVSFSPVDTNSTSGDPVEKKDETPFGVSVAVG
# Experimental: Direct binding studies: were done as described (Saragovi et al., 1998) using 6 ng/well of recombinant baculovirus TrkA-extracellular domain protein (TrkA-ECD) or control bovine serum albumin (BSA, Fraction V, Boehringer Mannheim) immobilized onto 96-well microtest plates. Wells were blocked with binding buffer (BB: PBS with 1% BSA) for 1 hour. Then, 50 ng/well of biotinylated D3 were added as primary reagent in BB for 40 min in the absence or presence of excess non-biotinylated D3 as competitor. Wells were washed 5 times with BB, and horseradish peroxidase (HRP)-coupled avidin (Sigma) was added as secondary reagent for 30 min. Plates were washed in BB, and peroxidase activity was determined colorimetrically using 2,2-azinobis (3-ethylbenzthiazoline sulfonic acid) (ABTS, Sigma). The optical density (OD) was measured at 414 nm in a Microplate reader (Bio-Rad). Assays were repeated at least three times, n=4.
# Binding Competition: studies were as described for direct binding assays to TrkA-ECD, except that as primary reagent 50 ng anti-TrkA mAb 5C3/well were added in BB, in the presence or absence of D3 or controls as competitors as described (Saragovi et al., 1998). Wells were washed 5 times with BB, and HRP-coupled goat anti-mouse was added as secondary reagent for 30 min. Plates were washed in BB, and peroxidase activity were determined. Assays were repeated at least three times, n=4.
# [1] = target: T2, HEK 293 cells expressing TrkB/TrkA IgG-C2 chimeric receptor (Homo sapiens, UniProt P04629+Q16620); experiment: Cell survival (MTT), HEK 293-TrkB/TrkA IgG-C2 chimera; format: cell-based; conditions: HEK 293-TrkB/TrkA chimera, 72 hours;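 for % Protection: 100% equals survival with optimal NGF at 1 nM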
# T2 construct: The IgG-C2 domain of human TrkA was generated using unique restriction sites; expressed in transfected cells
# T2 sequence (P04629 299-365 limits assumed, change not shown, one chain of several): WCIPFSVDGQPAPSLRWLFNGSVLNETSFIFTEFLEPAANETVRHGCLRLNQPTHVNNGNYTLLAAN
# From the text: The IgG-C2 domain of human TrkA was generated using unique restriction sites in the primers to allow exchange with the corresponding rat TrkB domain. The chimeric receptors were constructed by subcloning the human TrkA IgG-C2 domain into the corresponding restriction sites of the rat trkB cDNA reported in a previous work (Perez et al., 1995). Chimeric constructs were confirmed by sequencing, and were cloned into the pCDNA3 expression vector that contains a selection gene providing resistance to neomycin (G418, GIBCO). HEK293 cells were transfected using the lipofectamine plus method (GIBCO), selected with neomycin (0.5 mg/ml) and at least 3 independent subclones were obtained by limiting dilution techniques (293-TrkB/A-IgC2 chimera).
# (§1) Cell lines: 5,000 cells/well in protein-free media (PFHM-II, GIBCO, Toronto) containing 0.2% bovine serum albumin (BSA) (Crystalline fraction V, Sigma, St. Louis, Mo.) were seeded in 96 well plates (Falcon, Mississauga, Ontario). The cultures were untreated, or treated with the indicated test or control ligands. Cell viability was quantitated using the MTT assay after 56-72 hours of culture. […] The OD of untreated cells were subtracted.
# [2] = tested on: embryonic rat DRG primary neuronal cultures; experiment: Cell survival (MTT), primary DRG cultures; format: cell-based; conditions: compound 10 μM alone; 8 days;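 for % Protection: 100% equals survival with optimal NGF at 1 nM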
# Experimental: Fetal rat DRG primary cultures were established from Sprague Dawley day 17 rat embryos. All ganglia were dissected and dissociated first enzymatically with trypsin and then mechanically. Dissociated cells were cultured (10^5 cells/well) in 96 well plates pre-coated with collagen, and grown for a total of 8 days in Neuro Basal Medium containing N2 supplement (GIBCO, Toronto), antibiotics, and L-glutamine. These DRG cultures are ˜85% TrkA-expressing and are heavily dependent on TrkA signals for survival.
# Primary DRG cultures: After a total of 8 days of culture with the indicated test or control ligands, cell survival were studied using the 3(4,5-Dimethylthiazolyl-2)-2,5-diphenyl tetrazolium bromide colorimetric (MTT) assay, and by microscopic observation.
# as §1, with “subtracted. The higher optical density of untreated primary cultures is likely due to cellular heterogeneity and to endogenous production of limiting amounts of growth factors.” for “subtracted.”
# p75 NGF receptor subunit = target: T3, p75 NGF receptor subunit (Rattus norvegicus, UniProt P07174); experiment: FACScan competition of anti-p75 mAb MC192 binding on 4-3.6 cells
# T3 construct: B104 rat neuroblastomas express p75 receptors; endogenous in cells
# T3 sequence (P07174 30-425): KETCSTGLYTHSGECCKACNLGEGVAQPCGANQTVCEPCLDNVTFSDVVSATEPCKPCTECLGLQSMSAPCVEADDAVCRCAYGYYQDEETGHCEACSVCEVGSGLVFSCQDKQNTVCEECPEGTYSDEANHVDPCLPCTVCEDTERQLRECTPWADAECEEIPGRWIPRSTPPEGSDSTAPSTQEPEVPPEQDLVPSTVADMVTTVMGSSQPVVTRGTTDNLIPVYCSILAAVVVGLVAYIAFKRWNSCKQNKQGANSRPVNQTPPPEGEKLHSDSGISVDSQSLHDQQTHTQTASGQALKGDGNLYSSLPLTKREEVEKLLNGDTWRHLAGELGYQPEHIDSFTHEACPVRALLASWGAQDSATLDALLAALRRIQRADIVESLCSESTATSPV
# From the text: (§2) The 4-3.6 cells are B104 cells stably transfected with human trkA cDNA, and express equal levels of p75 and TrkA (TrkA+ p75+). For screening agents that activate or antagonize TrkC receptors, NIH3T3 fibroblasts were stably transfected with human TrkC cDNA. These cells respond to the ligand NT-3. For screening agents that activate or antagonize TrkA receptors, NIH3T3 fibroblasts were stably transfected with human TrkA cDNA. These cells respond to the ligand NGF.
# (§3) FACScan binding assays: 4-3.6 cells (2×10^5) in FACScan binding buffer (PBS, 0.5% BSA, and 0.1% NaN3) were immunostained as described (Saragovi et al., 1998). Saturating anti-TrkA mAb 5C3, or anti-p75 mAb MC192, or control non-binding IgGs were added to cells for 1 hour at 4° C., in the presence or absence of D3 as competitor. Excess primary antibody was washed off, and cells were immunostained with fluorescinated goat-anti-mouse IgG secondary antibody. Cells were acquired on a FACScan and mean channel fluorescence of bell-shaped histograms were analyzed using the LYSIS II program.
# 4-3.6 cells (p75+TrkA+) = experiment: Cell survival (MTT), 4-3.6 cells; format: cell-based, rat; conditions: 72 hours;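 for % Protection: 100% equals survival with optimal NGF at 1 nM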
# From the text: as §2
# as §1, with “subtracted. The higher optical density of untreated primary cultures is likely due to cellular heterogeneity and to endogenous production of limiting amounts of growth factors.” for “subtracted.”
# septal neuronal cultures = experiment: ChAT activity in septal neuronal cultures; format: cell-based, rat; conditions: compound 20 μM alone; day 8
# Experimental: Cell cultures were established from the septal area of 17-day-old rat embryos. In brief, tissue was incubated in PBS containing trypsin and DNase. Tissue pieces then were mechanically dissociated. After centrifugation, the pellet was suspended in Leibovitz's L-15 medium. Cells were plated onto 96-multiwell NUNC dishes (10^5 cells/well) coated with poly-D-lysine (5 μg/ml). Pure cultures of septal neurons were treated 1 day after plating. Drugs, prepared in medium, were added directly to the cells without changing the initial medium. The incubation continued for 8 days, at which time ChAT activity was evaluated.
# At day 8 of culture, the medium was aspirated, and ice-cold lysis buffer (10 mM sodium phosphate, pH 7.4/0.1% TritonX-100—Trade-mark) was added. ChAT activity assays were performed directly in the wells using Fonnum's method (Fonnum, 1975).
# cell surface TrkA = target: T4, cell surface TrkA (Homo sapiens, UniProt P04629); experiment: FACScan competition of mAb 5C3 binding on 4-3.6 cells; conditions: mAb 1 nM; competitor 40 μM
# T4 construct: expressed in transfected cells
# T4 sequence (P04629 33-796): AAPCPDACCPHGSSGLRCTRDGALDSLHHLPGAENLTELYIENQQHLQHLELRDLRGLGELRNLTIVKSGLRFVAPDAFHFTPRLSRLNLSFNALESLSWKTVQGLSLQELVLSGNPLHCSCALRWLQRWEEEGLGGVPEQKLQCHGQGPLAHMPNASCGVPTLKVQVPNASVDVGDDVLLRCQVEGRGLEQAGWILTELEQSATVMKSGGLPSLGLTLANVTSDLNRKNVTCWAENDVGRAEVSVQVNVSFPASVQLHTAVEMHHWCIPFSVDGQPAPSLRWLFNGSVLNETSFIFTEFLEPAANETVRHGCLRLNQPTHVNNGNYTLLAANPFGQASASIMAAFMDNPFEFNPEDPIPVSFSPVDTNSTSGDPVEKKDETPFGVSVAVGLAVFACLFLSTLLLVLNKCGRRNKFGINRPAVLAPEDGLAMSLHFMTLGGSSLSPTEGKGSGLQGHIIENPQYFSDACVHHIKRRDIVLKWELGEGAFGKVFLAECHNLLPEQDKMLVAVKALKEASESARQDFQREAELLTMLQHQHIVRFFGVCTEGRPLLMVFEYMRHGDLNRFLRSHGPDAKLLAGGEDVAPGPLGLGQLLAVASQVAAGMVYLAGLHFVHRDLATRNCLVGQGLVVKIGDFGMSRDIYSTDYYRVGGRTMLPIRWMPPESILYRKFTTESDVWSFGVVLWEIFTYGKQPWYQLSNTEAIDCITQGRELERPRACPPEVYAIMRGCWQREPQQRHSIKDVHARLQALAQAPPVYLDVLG
# From the text: as §2, §3
# [3] = tested on: wild type NIH3T3 fibroblasts; experiment: Cell survival (MTT), NIH wt; format: cell-based; conditions: 72 hours
# From the text: as §2
# as §1, with “subtracted. The higher optical density of untreated primary cultures is likely due to cellular heterogeneity and to endogenous production of limiting amounts of growth factors.” for “subtracted.”
# [4] = target: T5, NIH3T3 fibroblasts expressing TrkC (Homo sapiens, UniProt Q16288); experiment: Cell survival (MTT), NIH-TrkC; format: cell-based; conditions: 72 hours
# T5 construct: expressed in transfected cells; host or cells: NIH3T3 fibroblasts
# T5 sequence (Q16288 32-839): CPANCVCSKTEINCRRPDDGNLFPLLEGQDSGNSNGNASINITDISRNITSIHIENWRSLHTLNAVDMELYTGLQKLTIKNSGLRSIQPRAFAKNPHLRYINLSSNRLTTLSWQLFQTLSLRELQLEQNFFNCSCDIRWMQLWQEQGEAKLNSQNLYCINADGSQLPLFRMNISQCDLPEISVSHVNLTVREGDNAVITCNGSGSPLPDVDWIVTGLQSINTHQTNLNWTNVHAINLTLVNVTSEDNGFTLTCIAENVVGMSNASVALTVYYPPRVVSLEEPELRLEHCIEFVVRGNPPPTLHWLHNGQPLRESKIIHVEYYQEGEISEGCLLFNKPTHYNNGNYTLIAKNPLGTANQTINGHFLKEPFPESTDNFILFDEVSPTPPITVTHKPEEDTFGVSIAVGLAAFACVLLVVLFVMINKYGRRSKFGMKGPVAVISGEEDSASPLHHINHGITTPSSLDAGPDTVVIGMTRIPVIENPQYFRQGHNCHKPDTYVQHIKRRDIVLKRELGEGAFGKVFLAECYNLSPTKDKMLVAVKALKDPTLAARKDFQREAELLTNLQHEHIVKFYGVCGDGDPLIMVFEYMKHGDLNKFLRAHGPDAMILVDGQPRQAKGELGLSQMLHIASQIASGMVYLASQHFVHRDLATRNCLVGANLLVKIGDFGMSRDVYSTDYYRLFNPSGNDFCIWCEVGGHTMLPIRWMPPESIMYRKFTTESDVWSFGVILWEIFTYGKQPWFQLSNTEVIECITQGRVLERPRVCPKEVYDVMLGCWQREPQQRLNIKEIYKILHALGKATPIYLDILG
# From the text: as §2
# as §1, with “subtracted. The higher optical density of untreated primary cultures is likely due to cellular heterogeneity and to endogenous production of limiting amounts of growth factors.” for “subtracted.”
# [5] = target: T6, NIH3T3 fibroblasts expressing TrkA (Homo sapiens, UniProt P04629); experiment: Cell survival (MTT), NIH-TrkA; format: cell-based; conditions: 72 hours;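 note: 100% equals survival with optimal NGF at 1 nM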
# T6 construct: expressed in transfected cells; host or cells: NIH3T3 fibroblasts
# T6 sequence (P04629 33-796): as the sequence (P04629 33-796) above
# From the text: as §2, with “These cells respond to the ligand NT-3.” left out, “cDNA.” for “cDNA. These cells respond to the ligand NGF.”
# as §1
Compound,NIH wt % Protection ([3]; agent 10 μM + 10 pM NT-3) [%],NIH wt % Protection ([3]; agent 10 μM alone) [%],NIH-TrkC % Protection ([4]; agent 10 μM + 10 pM NT-3) [%],NIH-TrkC % Protection ([4]; agent 10 μM alone) [%],NIH-TrkA % Protection ([5]; agent 10 μM + 10 pM NGF) [%],NIH-TrkA % Protection ([5]; agent 10 μM + 10 pM NT-3) [%],NIH-TrkA % Protection ([5]; agent 10 μM alone) [%],NIH-TrkA % Protection ([5]; agent 10 μM + 1 nM NGF),also measured
"NCCCC[C@@H]1NC(=O)[C@H](CCC(=O)O)NC(=O)c2cc([N+](=O)[O-])ccc2SCC(C(N)=O)NC1=O (some centres unmarked) [C59, EKCys]",–,–,–,–,–,–,–,–,% Binding of mAb 5C3 to TrkA-ECD (TrkA-ECD): 96 ± 9%; % Protection ([1]; compound 10 μM + 10 pM NGF): 21 ± 6%; Optical Density ([1]; compound 10 μM + 10 pM NGF): 90 ± 9; % Protection ([1]; compound 10 μM alone): −1 ± 2%; Optical Density ([1]; compound 10 μM alone): 30 ± 7; % Protection [2]: 0 ± 1%; Optical Density [2]: 271 ± 8; inhibition of mAb MC192 binding (p75 NGF receptor subunit): did not inhibit; % Protection (4-3.6 cells (p75+TrkA+); compound 10 μM + 10 pM NGF): 41 ± 4%; Optical Density (4-3.6 cells (p75+TrkA+); compound 10 μM + 10 pM NGF): 209 ± 17; % Protection (4-3.6 cells (p75+TrkA+); compound 10 μM alone): 2 ± 1%; Optical Density (4-3.6 cells (p75+TrkA+); compound 10 μM alone): 76 ± 4; ChAT Activity (septal neuronal cultures): 0.30 ± 0.05 pmol Ach/min/well; Fold Increase (ChAT activity) (septal neuronal cultures): 1; % Maximal binding of mAb 5C3 (cell surface TrkA): 97 ± 6%
CCC(C)[C@@H]1NC(=O)C(CC(=O)O)NC(=O)c2cc([N+](=O)[O-])cc(I)c2OCCC(C(N)=O)NC1=O (some centres unmarked) [P23],1 ± 3,0 ± 3,51 ± 7,8 ± 2,52 ± 3,21 ± 3,15 ± 2,–,NIH wt % Protection ([3]; agent 10 μM + 10 pM NGF): 1 ± 3%; NIH-TrkC % Protection ([4]; agent 10 μM + 10 pM NGF): 11 ± 5%
CC(O)[C@@H]1NC(=O)[C@H](CCCCN)NC(=O)c2cc([N+](=O)[O-])cc(I)c2OCCC(C(N)=O)NC1=O (some centres unmarked) [P27],5 ± 4,−2 ± 4,62 ± 6,13 ± 3,–,4 ± 1,5 ± 2,–,–
CC(O)[C@@H]1NC(=O)c2cc([N+](=O)[O-])cc(I)c2NCCC(C(N)=O)NC(=O)CNC1=O (some centres unmarked) [P42],–,0 ± 3,–,–,9 ± 4,–,5 ± 2,68% and 68 ± 5%,–
NC(=O)C[C@@H]1NC(=O)[C@H](CCC(=O)O)NC(=O)c2cc([N+](=O)[O-])cc(I)c2NCCC(C(N)=O)NC1=O (some centres unmarked) [P43],–,2 ± 4,–,–,12 ± 3,–,4 ± 3,55% and 55 ± 7%,–
